Results taken from US20210347775A1, “Deuterated Imidazo[4,5-c]quinolin-2-one Compounds and Their Use in Treating Cancer” (AstraZeneca AB, priority 2017, published 2021).

Legend:
ATR = target: T1, ATR (Homo sapiens, UniProt Q13535); experiment: Assay b): ATR cellular potency (pChk1 Ser345 in HT29 cells after 4NQO); assay type: cell-based; conditions: Table 3 comparative data; HT29 cells, pChk1 Ser345 after 4NQO; may be geometric mean of several tests; read-out: Assay b) ATR Cell IC50
T1 construct: endogenous in cells; host or cells: HT29 cells (ECACC #85061109)
Description: (§1) The following assays were used to measure the effects of the compounds of the present invention: a) ATM cellular potency assay; b) PI3K cellular potency assay; c) mTOR cellular potency assay; d) ATR cellular potency assay. During the description of the assays, generally: • i. […] IC50 values were calculated using a smart fitting model in Genedata. […]
Phospho-Chk1 Ser 345 antibody (Cell Signalling Technology #2348) was diluted 150 fold in PBS containing 0.05% polysorbate/Tween and 15 μl was added to each well and incubated over night at r.t. […] After 2 h incubation at r.t., the plates were washed three times with 50 μl/well PBS, using a Biotek EL405 plate washer, and plates were then sealed with black plate seals until read. Plates were read using an ArrayScan VTI instrument, using an XF53 filter with 10× objective. […]

ATM = target: T2, ATM (Homo sapiens, UniProt Q13315); experiment: Assay a): ATM cellular potency (pATM Ser1981 in irradiated HT29 cells); assay type: cell-based; conditions: Table 2; HT29 cells, pATM Ser1981 after X-ray irradiation; may be geometric mean of several tests; read-out: Assay a) ATM Cell IC50
T2 construct: endogenous in cells; host or cells: HT29 cells (ECACC #85061109)
Description: as §1
The rationale of the pATM assay is to identify inhibitors of ATM in cells. […] The fluorescence is read on the arrayscan imaging platform. […]
Phospho-ATM Ser1981 antibody (Millipore #MAB3806) was diluted 10000 fold in PBS containing 0.05% polysorbate/Tween and 3% BSA and 20 μl was added to each well and incubated over night at r.t. […] After 1 h incubation at r.t., the plates were washed three times with 50 μl/well PBS, using a Biotek EL405 plate washer, and plates were sealed and kept in PBS at 4° C. until read. Plates were read using an ArrayScan VTI instrument, using an XF53 filter with 10× objective. […]

T2 sequence (Q13315 whole entry): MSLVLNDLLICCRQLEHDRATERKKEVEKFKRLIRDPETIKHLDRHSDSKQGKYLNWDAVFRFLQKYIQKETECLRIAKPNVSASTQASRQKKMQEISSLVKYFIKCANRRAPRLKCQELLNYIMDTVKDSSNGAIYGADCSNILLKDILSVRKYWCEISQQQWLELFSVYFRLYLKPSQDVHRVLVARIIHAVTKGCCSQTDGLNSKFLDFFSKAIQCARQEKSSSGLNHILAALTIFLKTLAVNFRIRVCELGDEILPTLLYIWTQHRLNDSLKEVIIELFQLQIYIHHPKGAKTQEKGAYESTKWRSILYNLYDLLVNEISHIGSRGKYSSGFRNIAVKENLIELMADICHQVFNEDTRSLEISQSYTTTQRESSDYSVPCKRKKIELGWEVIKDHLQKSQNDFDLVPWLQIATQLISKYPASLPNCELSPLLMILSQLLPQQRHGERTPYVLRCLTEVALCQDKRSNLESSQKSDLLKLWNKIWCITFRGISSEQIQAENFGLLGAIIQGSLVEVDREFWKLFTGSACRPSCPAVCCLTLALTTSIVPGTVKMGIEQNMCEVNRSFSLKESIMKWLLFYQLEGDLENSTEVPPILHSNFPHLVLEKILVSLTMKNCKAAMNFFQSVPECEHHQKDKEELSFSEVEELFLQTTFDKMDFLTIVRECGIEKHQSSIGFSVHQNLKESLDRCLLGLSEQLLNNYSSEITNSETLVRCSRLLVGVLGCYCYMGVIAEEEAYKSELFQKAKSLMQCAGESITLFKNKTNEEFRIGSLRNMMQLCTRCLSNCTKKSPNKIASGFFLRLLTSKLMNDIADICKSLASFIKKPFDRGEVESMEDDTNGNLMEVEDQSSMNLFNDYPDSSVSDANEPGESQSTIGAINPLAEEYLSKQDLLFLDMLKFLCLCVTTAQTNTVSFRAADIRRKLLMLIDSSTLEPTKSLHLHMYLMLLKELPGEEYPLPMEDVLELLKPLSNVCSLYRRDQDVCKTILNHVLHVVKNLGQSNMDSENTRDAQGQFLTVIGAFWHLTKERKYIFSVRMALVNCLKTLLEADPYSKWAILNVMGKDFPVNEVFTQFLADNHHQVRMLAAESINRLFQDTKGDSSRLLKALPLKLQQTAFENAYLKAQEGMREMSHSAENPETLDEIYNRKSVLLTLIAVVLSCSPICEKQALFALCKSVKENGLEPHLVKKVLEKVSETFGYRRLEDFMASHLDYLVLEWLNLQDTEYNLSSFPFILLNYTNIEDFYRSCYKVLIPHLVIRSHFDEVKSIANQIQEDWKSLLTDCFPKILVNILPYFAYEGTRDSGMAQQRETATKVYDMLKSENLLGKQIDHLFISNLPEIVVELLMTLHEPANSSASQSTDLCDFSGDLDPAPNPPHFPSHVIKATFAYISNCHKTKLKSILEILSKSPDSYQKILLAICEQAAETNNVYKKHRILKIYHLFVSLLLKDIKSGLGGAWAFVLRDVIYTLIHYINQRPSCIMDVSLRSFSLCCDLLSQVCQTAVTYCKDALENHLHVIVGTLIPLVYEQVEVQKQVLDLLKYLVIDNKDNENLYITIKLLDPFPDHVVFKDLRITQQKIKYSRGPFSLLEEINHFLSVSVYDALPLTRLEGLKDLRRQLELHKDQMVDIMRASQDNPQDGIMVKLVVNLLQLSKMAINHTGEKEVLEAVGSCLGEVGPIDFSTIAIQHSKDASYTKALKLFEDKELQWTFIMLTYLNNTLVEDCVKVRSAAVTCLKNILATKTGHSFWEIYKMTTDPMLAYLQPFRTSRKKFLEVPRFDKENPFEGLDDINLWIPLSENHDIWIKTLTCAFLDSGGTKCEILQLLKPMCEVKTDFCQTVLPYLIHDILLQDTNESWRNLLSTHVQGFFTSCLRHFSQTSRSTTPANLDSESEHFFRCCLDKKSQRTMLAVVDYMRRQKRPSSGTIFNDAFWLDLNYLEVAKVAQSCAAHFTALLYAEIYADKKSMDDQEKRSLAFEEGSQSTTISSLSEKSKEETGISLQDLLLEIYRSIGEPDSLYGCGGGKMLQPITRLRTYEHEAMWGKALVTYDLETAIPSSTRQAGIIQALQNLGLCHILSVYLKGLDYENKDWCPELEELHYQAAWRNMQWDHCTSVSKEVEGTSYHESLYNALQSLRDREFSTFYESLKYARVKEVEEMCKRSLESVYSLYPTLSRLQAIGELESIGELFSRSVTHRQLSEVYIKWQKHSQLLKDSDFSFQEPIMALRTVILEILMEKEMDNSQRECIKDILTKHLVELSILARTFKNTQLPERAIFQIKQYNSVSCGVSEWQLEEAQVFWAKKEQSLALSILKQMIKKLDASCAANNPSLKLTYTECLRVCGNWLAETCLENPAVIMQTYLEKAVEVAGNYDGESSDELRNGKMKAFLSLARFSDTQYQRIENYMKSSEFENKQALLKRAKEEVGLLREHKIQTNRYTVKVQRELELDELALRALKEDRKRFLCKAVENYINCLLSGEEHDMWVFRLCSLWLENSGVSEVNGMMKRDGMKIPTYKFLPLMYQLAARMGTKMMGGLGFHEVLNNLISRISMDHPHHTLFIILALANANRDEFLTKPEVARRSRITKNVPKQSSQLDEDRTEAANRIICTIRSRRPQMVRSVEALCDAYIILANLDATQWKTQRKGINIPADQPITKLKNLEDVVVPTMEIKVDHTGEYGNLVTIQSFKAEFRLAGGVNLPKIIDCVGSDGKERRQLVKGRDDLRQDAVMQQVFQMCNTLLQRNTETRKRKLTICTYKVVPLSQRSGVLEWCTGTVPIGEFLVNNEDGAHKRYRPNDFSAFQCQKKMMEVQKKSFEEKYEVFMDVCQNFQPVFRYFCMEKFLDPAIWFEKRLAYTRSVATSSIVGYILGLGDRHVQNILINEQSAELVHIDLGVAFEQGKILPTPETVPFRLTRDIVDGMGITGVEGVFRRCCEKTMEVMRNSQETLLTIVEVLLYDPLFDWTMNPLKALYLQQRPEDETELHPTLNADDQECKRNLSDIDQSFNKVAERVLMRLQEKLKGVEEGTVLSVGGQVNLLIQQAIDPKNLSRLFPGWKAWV

IC50 (ATR) [nM]	IC50 (ATM) [nM]	SMILES
419		Cn1c(=O)n(C2CCOCC2)c2c3cc(-c4cnn(CCCO)c4)ccc3ncc21 [CN102399218A Compound 60]
	2.5	[2H]c1c(F)c(-c2ccc(OCCCN3CCCCC3)nc2)cc2c1nc([2H])c1c2n(C(C)C)c(=O)n1C [Example 1, 4,6-Dideuterio-7-fluoro-1-isopropyl-3-methyl-8-[6-[3-(1-piperidyl)propoxy]-3-pyridyl]imidazo[4,5-c]quinolin-2-one]
